Results taken from patent US8415469B2, “Compounds and methods for kinase modulation, and indications therefor” (Plexxikon Inc., priority 2005, dated 2013).

How the values were obtained:
Assay type in all cases: biochemical
[1] = molecular target: T1, IKK beta (Homo sapiens, UniProt O14920); test: AlphaScreen kinase assay, IKK beta; details: read-out: IC50, activity toward kinase IKK beta
T1 sequence (O14920 1-756): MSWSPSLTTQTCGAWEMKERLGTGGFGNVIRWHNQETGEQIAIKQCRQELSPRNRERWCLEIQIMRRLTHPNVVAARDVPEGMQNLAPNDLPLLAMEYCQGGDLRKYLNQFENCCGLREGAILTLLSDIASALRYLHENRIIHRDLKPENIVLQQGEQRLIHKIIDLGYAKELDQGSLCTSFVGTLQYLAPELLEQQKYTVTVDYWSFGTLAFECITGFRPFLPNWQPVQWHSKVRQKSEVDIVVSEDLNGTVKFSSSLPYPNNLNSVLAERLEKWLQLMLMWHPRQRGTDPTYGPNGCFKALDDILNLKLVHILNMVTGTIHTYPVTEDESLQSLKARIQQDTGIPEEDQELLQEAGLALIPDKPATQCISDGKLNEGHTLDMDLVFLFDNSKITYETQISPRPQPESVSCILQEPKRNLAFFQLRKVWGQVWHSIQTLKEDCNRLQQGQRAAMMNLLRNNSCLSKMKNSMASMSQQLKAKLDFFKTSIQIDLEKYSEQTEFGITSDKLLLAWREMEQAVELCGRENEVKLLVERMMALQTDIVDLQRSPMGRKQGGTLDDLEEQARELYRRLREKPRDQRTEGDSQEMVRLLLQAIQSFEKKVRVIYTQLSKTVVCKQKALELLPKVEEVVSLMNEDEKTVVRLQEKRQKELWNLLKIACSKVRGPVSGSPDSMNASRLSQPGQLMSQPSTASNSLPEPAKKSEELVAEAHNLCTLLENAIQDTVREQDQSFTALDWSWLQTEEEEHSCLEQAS

[2] = molecular target: Gsk3β (Homo sapiens, UniProt P49841); test: AlphaScreen kinase assay, Gsk3β; details: read-out: IC50, activity toward kinase Gsk3β
How it was run: (§1)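 Emission from acceptor beads reports phosphorylated biotin-peptide bridging antibody-coated acceptor and streptavidin donor beads; loss of signal reflects kinase inhibition. Eight-point, threefold dilution series prepared from 20 mM DMSO stocks.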

[3] = molecular target: T2, Stk6 (Homo sapiens, UniProt O14965); test: Z'-Lyte FRET kinase assay (Invitrogen), Stk6; details: read-out: IC50, activity toward kinase Stk6
T2 construct: purchased Invitrogen (Carlsbad, Calif.), screening service
T2 sequence (O14965 1-403): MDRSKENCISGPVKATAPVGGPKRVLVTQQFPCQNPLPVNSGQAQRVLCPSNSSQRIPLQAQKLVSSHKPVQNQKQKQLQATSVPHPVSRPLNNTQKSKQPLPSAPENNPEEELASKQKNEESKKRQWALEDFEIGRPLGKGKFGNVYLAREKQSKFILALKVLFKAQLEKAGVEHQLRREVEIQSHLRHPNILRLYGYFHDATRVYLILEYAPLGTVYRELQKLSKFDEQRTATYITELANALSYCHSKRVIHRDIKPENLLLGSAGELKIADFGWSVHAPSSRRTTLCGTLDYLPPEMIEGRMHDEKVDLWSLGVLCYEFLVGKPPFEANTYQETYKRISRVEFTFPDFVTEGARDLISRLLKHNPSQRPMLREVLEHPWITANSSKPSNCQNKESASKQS

[4] = molecular target: T3, Kdr (Homo sapiens, UniProt P35968); test: Z'-Lyte FRET kinase assay (Invitrogen), Kdr; details: read-out: IC50, activity toward kinase Kdr
T3 construct: purchased Invitrogen (assay run by Invitrogen)

[5] = molecular target: T4, MAPKAPK2 (Homo sapiens, UniProt P49137); test: Z'-Lyte FRET kinase assay (Invitrogen), MAPKAPK2; details: read-out: IC50, activity toward kinase MAPKAPK2
T4 construct: purchased Invitrogen (assay run by Invitrogen)
Excerpt: The effect of potential modulators of kinase activity can be measured in a variety of different assays known in the art. For example, direct radiometric, indirect FRET or AlphaScreen assays may be used to assess the level of phosphorylation of a substrate in the presence of test compounds in order to determine the inhibitory affect of the compound on the kinase. Invitrogen (Carlsbad, Calif.) uses a FRET based assay for Btk, EGFR, EphB2, Flt3, lrak4, Kdr, MAP2K1, MAPKAPK2, PDGFRB, PKC theta, Stk6 and Yes. For these assays, compounds of the invention were screened by Invitrogen using Z′-Lyte™ kinase assay.
Briefly, the Invitrogen kinase assay involves use of a specific peptide substrate optimized for each kinase, containing a fluorophore at each end that make up the FRET pair. The peptide sensitivity to proteolytic cleavage depends on phosphorylation of the peptide. Non-phosphorylated peptide is cleaved by a protease while peptide phosphorylated by the kinase is not cleaved. Cleavage of the peptide disrupts the FRET between the donor (coumarin) and acceptor (fluorescein) fluorophores, resulting in an increase in the ratio of donor emission to acceptor emission. The emission ratio of coumarin to fluorescein is used to assess the reaction progress. The extent of phosphorylation is determined from the emission ratio, which is low when the kinase is active (phosphorylated peptide is not cleaved, FRET pair connected) or higher for inhibited kinase (non-phosphorylated peptide is cleaved, FRET pair separated). Thus, the assay involves a kinase reaction in the presence of varying concentrations of a given compound, a development reaction with site specific protease, and detection of the fluorescent emission ratio of coumarin and fluorscein. […] Reaction conditions for each kinase are determined to provide optimal reaction times, incubation temperature, kinase and ATP concentrations. Test samples are made up in 1× kinase buffer (50 mM HEPES pH 7.5, 50 mM MgCl2, 5 mM EGTA, 0.05% BRIJ-35) and compound at desired concentration prepared in DMSO such that the final DMSO is 1%. […] Typically, assay plates are prepared to 10 μl final volume per sample, adding 2.5 μl of compound at 4× the desired concentration in 4% DMSO (serial dilution of compound provides concentration curve), 5 μl of the desired kinase mixed with Z′-LYTE™ peptide substrate (2× in 2× kinase buffer, final peptide at 2 μM), and 2.5 μl of 4×ATP solution. All kinase except for MAP2K1 were at 10 μM ATP in the kinase reaction, while MAP2K1 was at 100 μM. Samples are mixed and the kinase reaction is incubated 1 hour at room temperature, after which 5 μl of development solution is added and mixed. After incubation for another 1 hour at room temperature, 5 μl of stop reagent is added to each sample and mixed. The fluorescence signals are measured to determine the emission ratio.

[6] = molecular target: T5, Pyk2 (Homo sapiens, UniProt Q14289); test: AlphaScreen kinase assay, Pyk2; details: read-out: IC50, activity toward kinase Pyk2
T5 construct: purchased Upstate Biotechnology

[7] = molecular target: T6, Kit (Homo sapiens, UniProt P10721); test: AlphaScreen kinase assay, Kit; details: read-out: IC50, activity toward kinase Kit
T6 construct: P1332.N6 BI PTP KIT M552-K948-X COD; His6 (N); made in house; host or cells: E. coli (PTP1B co-expressed)

[8] = molecular target: Frk (Homo sapiens, UniProt P42685); test: AlphaScreen kinase assay, Frk; details: read-out: IC50, activity toward kinase Frk
Excerpt: (§2) AlphaScreen assay was used to screen additional kinases. The assay is similarly dependent on the phosphorylation of a peptide substrate. In this assay, an antibody that recognizes phosphorylated substrate is bound to an acceptor bead. The peptide substrate is attached to biotin, which binds to a donor head that contains streptavidin. Thus phosphorylated substrate is bound by antibody and streptavidin, bringing the donor and acceptor heads into close proximity when kinase is not inhibited. The donor produces singlet oxygen which results in emission from the acceptor when they are in close proximity. Conversely, when kinase is inhibited, the donor and acceptor beads are not associated and the emission from the acceptor is reduced.
(§3) AlphaScreen assays were done using compounds dissolved in DMSO to a concentration of 20 mM. The compounds were diluted accordingly to the desired final concentrations in each sample well, using 1:3 serial dilution for a total of 8 concentration points.

[9] = molecular target: Hck (Homo sapiens, UniProt P08631); test: AlphaScreen kinase assay, Hck; details: read-out: IC50, activity toward kinase Hck
Excerpt: as §2, §3

[10] = molecular target: T7, Src (Homo sapiens, UniProt P12931); test: AlphaScreen kinase assay, Src; details: read-out: IC50, activity toward kinase Src
T7 construct: P1144. pET-N6 BI-PTP SRC V86-L536-X; made in house

[11] = molecular target: PDGFRA (Homo sapiens, UniProt P16234); test: AlphaScreen kinase assay, PDGFRA; details: read-out: IC50, activity toward kinase PDGFRA
Excerpt: as §2, §3

[12] = molecular target: T8, Fak (Homo sapiens, UniProt Q05397); test: AlphaScreen kinase assay, Fak; details: read-out: IC50, activity toward kinase Fak
T8 construct: P1358.pFastBacHtb FAK S411-Q686-X; His6 with pFastBacHTb leader (TEV site) (N); made in house; host or cells: Sf9 (baculovirus)

[13] = molecular target: T9, FGFR1 (Homo sapiens, UniProt P11362, C488A/C584S); test: AlphaScreen kinase assay, FGFR1; details: read-out: IC50, activity toward kinase FGFR
T9 construct: P1351.pET N6 BI-PTP FGFR A458-E765-X C488A, C584S; made in house; host or cells: E. coli (PTP1B co-expressed)

[14] = molecular target: Csk (Homo sapiens, UniProt P41240); test: AlphaScreen kinase assay, Csk; details: read-out: IC50, activity toward kinase Csk
Excerpt: as §2, §3

[15] = molecular target: Brk (Homo sapiens, UniProt Q13882); test: AlphaScreen kinase assay, Brk; details: read-out: IC50, activity toward kinase Brk
Excerpt: as §2, §3

[16] = molecular target: MAP4K4 (Homo sapiens, UniProt O95819); test: AlphaScreen kinase assay, MAP4K4; details: read-out: IC50, activity toward kinase MAP4K4
[17] = molecular target: T10, Btk (Homo sapiens, UniProt Q06187); test: Z'-Lyte FRET kinase assay (Invitrogen), Btk; details: read-out: IC50, activity toward kinase Btk
T10 construct: purchased Invitrogen (assay run by Invitrogen)

[18] = molecular target: T11, B-Raf V600E (Homo sapiens, UniProt P15056, V600E); test: AlphaScreen kinase assay, B-Raf V600E; details: read-out: IC50, activity toward kinase B-Raf V600E
T11 construct: P4254. pFastBacBD-CDC37 BRAF D437-K722-X, V600E; His6 with pFastBac HT leader (TEV site) (N); made in house; host or cells: Sf9 (baculovirus; chaperone CDC37 co-expressed)

[19] = molecular target: T12, Fms (Homo sapiens, UniProt P07333); test: AlphaScreen kinase assay, Fms; details: read-out: IC50, activity toward kinase Fms
T12 construct: purchased Upstate Biotechnology

[20] = molecular target: T13, B-Raf (Homo sapiens, UniProt P15056); test: AlphaScreen kinase assay, B-Raf; details: read-out: IC50, activity toward kinase B-Raf
T13 construct: purchased Upstate Biotechnology
Method: AlphaScreen assays were done using compounds dissolved in DMSO to a concentration of 20 mM. The compounds were diluted accordingly to the desired final concentrations in each sample well, using 1:3 serial dilution for a total of 8 concentration points. Plates were prepared such that each kinase reaction is 20 μl in 1× kinase buffer, 5% DMSO and 10 μM ATP. After incubation of the kinase reaction for 1 hour at room temperature, 5 μl of donor beads in stop buffer (50 mM EDTA in 1× kinase buffer) was added, the sample was mixed and incubated for 20 minutes at room temperature before adding 5 μl of acceptor beads in stop buffer. The samples were incubated for 60 minutes at room temperature and the signal per well was read on AlphaQuest reader.

[21] = molecular target: T14, c-Raf-1 (Homo sapiens, UniProt P04049); test: AlphaScreen kinase assay, c-Raf-1; details: read-out: IC50, activity toward kinase c-Raf-1
T14 construct: purchased Upstate Biotechnology

[22] = molecular target: T15, Abl (Homo sapiens, UniProt P00519); test: AlphaScreen kinase assay, Abl; details: read-out: activity toward kinase Abl, IC50
T15 construct: P1121. pET-SPEC BI-PTP Abl G227-V515-X; His6 (N); made in house; host or cells: E. coli (PTP1B co-expressed)
T15 sequence (P00519 with tags, fused parts or gaps): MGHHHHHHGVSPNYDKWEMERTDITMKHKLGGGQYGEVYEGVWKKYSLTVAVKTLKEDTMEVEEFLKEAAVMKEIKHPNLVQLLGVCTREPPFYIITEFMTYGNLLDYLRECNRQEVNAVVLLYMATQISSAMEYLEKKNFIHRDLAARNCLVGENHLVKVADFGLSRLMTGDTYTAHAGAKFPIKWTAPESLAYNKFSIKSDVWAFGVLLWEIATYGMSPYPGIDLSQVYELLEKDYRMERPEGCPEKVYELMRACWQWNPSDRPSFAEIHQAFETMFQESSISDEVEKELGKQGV
How it was run: as §1

Measured: IC50

T6 sequence (P10721 with tags, fused parts or gaps): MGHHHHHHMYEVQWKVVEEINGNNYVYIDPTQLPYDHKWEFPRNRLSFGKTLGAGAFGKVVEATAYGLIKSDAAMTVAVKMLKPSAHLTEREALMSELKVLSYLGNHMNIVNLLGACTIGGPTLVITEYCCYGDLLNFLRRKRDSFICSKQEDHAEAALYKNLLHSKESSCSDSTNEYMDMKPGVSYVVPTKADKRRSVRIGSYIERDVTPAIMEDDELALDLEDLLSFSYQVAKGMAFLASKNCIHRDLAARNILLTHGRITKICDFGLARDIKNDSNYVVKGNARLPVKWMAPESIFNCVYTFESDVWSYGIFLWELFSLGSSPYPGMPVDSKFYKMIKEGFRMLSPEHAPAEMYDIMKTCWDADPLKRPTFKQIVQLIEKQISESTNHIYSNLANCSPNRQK
Gsk3β, sequence (P49841 whole entry): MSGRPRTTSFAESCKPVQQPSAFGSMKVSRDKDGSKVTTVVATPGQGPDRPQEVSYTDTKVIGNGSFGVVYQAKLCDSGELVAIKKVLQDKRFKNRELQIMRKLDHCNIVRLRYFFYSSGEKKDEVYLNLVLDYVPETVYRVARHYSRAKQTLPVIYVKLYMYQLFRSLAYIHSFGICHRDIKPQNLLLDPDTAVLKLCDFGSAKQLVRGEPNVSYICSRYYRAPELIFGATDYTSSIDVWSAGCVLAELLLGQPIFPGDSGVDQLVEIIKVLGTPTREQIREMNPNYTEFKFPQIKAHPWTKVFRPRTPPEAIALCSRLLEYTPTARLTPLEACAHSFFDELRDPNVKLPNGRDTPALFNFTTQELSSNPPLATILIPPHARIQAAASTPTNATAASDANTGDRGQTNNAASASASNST
T4 sequence (P49137 whole entry): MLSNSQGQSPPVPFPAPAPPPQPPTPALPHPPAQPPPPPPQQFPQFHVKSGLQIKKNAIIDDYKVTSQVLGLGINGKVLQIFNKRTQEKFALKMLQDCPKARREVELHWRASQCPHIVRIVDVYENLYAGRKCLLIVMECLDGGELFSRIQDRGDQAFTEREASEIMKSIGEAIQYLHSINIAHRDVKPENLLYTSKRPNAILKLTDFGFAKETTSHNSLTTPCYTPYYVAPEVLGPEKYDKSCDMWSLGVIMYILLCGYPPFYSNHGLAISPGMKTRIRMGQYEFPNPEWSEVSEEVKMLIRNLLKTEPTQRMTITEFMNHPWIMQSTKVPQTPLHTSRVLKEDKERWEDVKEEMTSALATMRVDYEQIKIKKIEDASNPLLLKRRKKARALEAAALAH
T7 sequence (P12931 with tags, fused parts or gaps): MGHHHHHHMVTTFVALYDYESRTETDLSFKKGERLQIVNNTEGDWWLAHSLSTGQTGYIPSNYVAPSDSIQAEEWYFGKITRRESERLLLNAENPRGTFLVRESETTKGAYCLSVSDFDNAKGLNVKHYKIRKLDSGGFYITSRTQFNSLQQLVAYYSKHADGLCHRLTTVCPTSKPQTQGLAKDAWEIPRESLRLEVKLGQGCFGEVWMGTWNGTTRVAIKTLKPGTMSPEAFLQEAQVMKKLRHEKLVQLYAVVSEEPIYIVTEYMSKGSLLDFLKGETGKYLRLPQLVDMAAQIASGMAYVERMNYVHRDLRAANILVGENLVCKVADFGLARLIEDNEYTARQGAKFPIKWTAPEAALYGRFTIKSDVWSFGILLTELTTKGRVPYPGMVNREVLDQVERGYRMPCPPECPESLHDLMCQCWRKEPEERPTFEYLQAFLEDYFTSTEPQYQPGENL
T8 sequence (Q05397 411-686): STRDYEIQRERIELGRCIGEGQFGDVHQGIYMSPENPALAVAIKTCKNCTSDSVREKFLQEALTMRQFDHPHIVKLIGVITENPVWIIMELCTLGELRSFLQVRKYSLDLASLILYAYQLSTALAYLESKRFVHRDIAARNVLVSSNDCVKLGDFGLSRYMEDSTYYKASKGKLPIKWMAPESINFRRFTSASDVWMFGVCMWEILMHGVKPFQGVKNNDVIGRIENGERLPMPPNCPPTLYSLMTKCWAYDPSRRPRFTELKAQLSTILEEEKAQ
Csk, sequence (P41240 whole entry): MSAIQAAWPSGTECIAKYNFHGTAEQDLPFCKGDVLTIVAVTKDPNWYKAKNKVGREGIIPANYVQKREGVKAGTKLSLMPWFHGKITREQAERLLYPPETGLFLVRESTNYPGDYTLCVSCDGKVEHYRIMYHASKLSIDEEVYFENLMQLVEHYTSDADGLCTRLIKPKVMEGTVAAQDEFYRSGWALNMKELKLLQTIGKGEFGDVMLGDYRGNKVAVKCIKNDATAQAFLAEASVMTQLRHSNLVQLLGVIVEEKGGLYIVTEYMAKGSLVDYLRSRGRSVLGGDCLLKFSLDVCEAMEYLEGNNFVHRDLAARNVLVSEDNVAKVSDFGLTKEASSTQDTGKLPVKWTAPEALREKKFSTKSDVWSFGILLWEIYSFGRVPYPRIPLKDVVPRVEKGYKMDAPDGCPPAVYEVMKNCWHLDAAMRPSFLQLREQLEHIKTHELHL
Brk, sequence (Q13882 whole entry): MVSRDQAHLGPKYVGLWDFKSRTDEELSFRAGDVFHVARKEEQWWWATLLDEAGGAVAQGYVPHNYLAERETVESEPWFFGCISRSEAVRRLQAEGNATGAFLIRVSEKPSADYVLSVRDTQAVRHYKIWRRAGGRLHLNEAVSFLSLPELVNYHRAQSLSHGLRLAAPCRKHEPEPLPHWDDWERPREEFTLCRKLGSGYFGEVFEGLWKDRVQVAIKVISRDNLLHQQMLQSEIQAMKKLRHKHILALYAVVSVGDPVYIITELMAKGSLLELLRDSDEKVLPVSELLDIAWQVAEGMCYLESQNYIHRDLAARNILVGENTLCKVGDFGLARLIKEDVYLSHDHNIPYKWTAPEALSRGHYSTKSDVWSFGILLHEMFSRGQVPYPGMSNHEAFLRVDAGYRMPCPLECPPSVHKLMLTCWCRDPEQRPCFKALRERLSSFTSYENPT
T9 sequence (P11362 458-765 C488A/C584S): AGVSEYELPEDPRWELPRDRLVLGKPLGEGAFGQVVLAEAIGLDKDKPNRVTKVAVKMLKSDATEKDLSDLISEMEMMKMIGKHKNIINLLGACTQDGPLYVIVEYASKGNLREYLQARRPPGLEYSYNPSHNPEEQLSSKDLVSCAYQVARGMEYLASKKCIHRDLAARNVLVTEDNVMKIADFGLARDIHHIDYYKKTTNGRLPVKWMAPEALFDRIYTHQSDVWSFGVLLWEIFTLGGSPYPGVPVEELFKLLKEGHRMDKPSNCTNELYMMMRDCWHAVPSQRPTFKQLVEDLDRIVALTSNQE
Hck, sequence (P08631 whole entry): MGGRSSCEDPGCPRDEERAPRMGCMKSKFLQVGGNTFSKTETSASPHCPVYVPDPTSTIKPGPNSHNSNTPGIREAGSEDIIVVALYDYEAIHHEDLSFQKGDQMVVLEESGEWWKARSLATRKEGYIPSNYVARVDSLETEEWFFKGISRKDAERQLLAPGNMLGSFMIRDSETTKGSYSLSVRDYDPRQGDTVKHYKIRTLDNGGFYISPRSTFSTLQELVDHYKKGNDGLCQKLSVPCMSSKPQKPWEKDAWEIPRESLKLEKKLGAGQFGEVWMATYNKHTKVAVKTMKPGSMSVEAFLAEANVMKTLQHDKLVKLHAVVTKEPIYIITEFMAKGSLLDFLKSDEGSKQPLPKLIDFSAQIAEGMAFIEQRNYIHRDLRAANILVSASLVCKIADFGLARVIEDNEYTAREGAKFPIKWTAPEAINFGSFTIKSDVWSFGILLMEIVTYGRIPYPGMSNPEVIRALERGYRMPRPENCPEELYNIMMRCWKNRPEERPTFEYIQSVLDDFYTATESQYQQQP
MAP4K4, sequence (O95819 whole entry): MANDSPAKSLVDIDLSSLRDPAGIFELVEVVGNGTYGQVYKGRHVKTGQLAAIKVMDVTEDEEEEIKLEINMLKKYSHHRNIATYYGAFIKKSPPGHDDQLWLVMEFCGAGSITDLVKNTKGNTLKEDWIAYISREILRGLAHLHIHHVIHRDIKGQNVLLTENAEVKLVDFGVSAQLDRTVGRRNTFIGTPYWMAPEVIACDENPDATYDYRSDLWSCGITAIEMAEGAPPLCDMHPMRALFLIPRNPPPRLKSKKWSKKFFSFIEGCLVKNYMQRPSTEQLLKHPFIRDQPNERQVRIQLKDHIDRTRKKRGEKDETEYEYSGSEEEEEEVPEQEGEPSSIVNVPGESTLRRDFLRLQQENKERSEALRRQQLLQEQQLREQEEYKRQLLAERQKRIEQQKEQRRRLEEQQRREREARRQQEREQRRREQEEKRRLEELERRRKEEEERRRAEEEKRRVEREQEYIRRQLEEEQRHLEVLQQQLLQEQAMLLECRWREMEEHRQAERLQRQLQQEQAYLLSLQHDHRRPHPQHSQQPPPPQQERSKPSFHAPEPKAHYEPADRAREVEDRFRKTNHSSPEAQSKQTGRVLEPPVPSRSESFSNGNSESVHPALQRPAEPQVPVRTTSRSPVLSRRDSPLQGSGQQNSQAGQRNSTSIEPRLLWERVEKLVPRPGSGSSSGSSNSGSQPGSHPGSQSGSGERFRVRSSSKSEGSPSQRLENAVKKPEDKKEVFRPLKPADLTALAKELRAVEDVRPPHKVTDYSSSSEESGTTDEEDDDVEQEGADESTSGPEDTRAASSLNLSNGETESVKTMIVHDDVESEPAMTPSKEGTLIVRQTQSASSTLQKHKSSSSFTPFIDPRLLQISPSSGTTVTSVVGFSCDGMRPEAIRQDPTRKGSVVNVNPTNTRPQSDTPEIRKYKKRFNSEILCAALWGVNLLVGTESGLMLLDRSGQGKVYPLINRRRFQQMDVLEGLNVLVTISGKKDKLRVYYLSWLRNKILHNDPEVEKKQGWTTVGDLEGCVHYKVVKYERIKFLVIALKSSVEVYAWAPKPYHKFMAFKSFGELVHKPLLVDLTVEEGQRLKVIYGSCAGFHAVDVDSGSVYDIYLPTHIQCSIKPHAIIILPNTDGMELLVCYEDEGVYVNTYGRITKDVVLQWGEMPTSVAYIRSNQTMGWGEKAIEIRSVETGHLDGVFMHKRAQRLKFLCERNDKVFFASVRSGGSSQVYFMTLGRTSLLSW

O=C(O)c1ccc(Sc2c[nH]c3ncccc23)nc1 [Compound P-0086]
≤ 10 µM: [1] | [2] | [3] | [4] | [5] | [6] | [7]

CCCS(=O)(=O)Nc1ccc(F)c(C(=O)c2c[nH]c3ncc(Cl)cc23)c1F [Compound P-0933, Propane-1-sulfonic acid [3-(5-chloro-1H-pyrrolo[2,3-b]pyridine-3-carbonyl)-2,4-difluoro-phenyl]-amide]
≤ 10 µM: [8] | [9] | [3] | [10] | [11] | [12] | [13] | [14] | [15] | [16] | [7]

O=C(c1c(F)ccc(NS(=O)(=O)c2ccccc2)c1F)c1c[nH]c2ncc(Cl)cc12 [Compound P-0885, N-[3-(5-Chloro-1H-pyrrolo[2,3-b]pyridine-3-carbonyl)-2,4-difluorophenyl]-benzenesulfonamide]
not listed: [1] | [2] | [4] | [5] | [6]
≤ 10 µM: all other assays above

Cc1cccc(-c2ccnc3[nH]cc(Sc4cccs4)c23)c1 [Compound P-0104]
≤ 10 µM: [2] | [3] | [5]

FC(F)(F)c1cccc(-c2ccnc3[nH]cc(Sc4ccncc4)c23)c1 [Compound P-0226]
≤ 10 µM: [2] | [4] | [5]
